Measurements: patent US20230277569A1, “Compositions and Methods for Treating, Ameliorating and/or Preventing Cancer and Kits for the Same” (priority 2022, published 2023)

Assay: Phase I, cytochrome P450-mediated human liver microsome metabolism
Details: 0.5 μM; human liver microsomes

Cc1ncc2n1-c1ccc(Cl)cc1C(c1ccccc1F)=NC2 [Midazolam, reference compound]
elimination rate constant (k): 0.04
intrinsic clearance (CLint): 3.23 mL/min/g
